# Patent US9557338B2 (SIGNAL PHARMACEUTICALS, LLC, priority 2012, dated 2017)
# Like-named read-outs stand apart in the source and are kept apart here.
# What was measured:
# Type in all cases: cell-based
# p70S6K = assay: Luminex multiplex assay, p70S6K phosphorylation in cell lysates
# Excerpt: (§1) The multiplex Luminex assay format differs from conventional enzyme-linked immunosorbent assay (ELISA) in that the multiplex capture antibody is attached to a polystyrene bead whereas the ELISA capture antibody is attached to the microplate well. The use of the suspension bead-based technology enables the multiplexing capabilities of the Luminex assays. The xMAP® technology uses 5.6 micron polystyrene microspheres, which are internally dyed with red and infrared fluorophores of differing intensities. Each bead is given a unique number, or bead region, allowing differentiation of one bead from another. Beads covalently bound to different specific antibodies can be mixed in the same assay, utilizing a 96-well microplate format. At the completion of the sandwich immunoassay, beads can be read, using the Luminex 100™ or Luminex 200 detection system, in single-file by dual lasers for classification and quantification of each analyte. The Akt-Pathway Phospho 5-plex kit used was custom made and includes the ability to simultaneously measure p-GSK3β (S9), p-PRAS40(T246), and p-4E-BP1(T46).
# (§2) Cells were plated at the required density. The cells were treated with either Compound 1 or rapamycin over a range of concentrations for 1 hour in 5% CO2 at 37° C. Compound 1 and rapamycin were used at the same concentrations as for the proliferation assay. As for the cell proliferation assay, a reference standard was included in the assay for PC3 cells and the coefficient of variation for assay of p-GSK3β(S9) was 37.8% (n=30), p-PRAS40(T246) was 27.8% (n=30) and for p4E-BP1(T46) was 13.5% (n=4). For three cell lines (HCT-116, MDA-MB-231 and HT29) in the assay for phosphorylation of GSK3β, PRAS40 and 4E-BP1, IGF-I stimulation (500 ng/mL, recombinant human IGF-I) for the last 10 min of incubation was used. The media was aspirated from the wells and the plate was placed on ice. Then 35 μL of Lysis Buffer was added to each well and incubated on ice for at least 30 minutes. During the incubation, the standard curve for each phosphoprotein was prepared. The standards provided were reconstituted and serial dilutions were prepared according to the manufacturer's instructions. At the end of the cell lysis step, […] of the lysate was transferred to a V-bottom plate and spun at 4° C. at 2000 rpm for 5 minutes. Both the 1× Luminex bead and 1× detector antibody solutions were prepared during this time. The 1× bead solution was vortexed and 25 μL was added into each well of a black round bottom plate. Then 50 μL of the 1× detector antibody was added to each well. Fifty microliters (50 μL) of the prepared standards were added to the designated wells. Then 25 μL of the assay diluent was added to each well designated for the compound-treated cell lysates. At the end of the spin, 25 μL of cell lysate was added to the corresponding wells of the black assay plate. The assay plate was covered with the white plate lid and incubated for 3 hours at room temperature on an orbital shaker.
# (§3) Approximately 10-15 minutes prior to the end of the first incubation, the secondary antibody solution was prepared according to the vendor's protocol. Goat anti-rabbit R-phycoerythrin red fluorescent protein (RPE) supplied as a 10× concentrate was diluted to generate a 1× goat anti-rabbit RPE stock. The 96-well filter plate was pre-wet with 200 μL of 1× Working wash solution. At the end of the 3 hour incubation, a multichannel pipette was used to transfer the entire contents from each assay well into the wells of the filter plate. The liquid from the wells was removed by aspiration with the vacuum manifold. Then 200 μL of 1× Working wash solution was added into each well. The wash solution was aspirated using the vacuum manifold after 15-30 seconds. This wash step was repeated one time. The bottom of the plate was blotted on clean paper towels to remove residual liquid. […]
# Phospho-GSK3β(S9) = assay: Luminex multiplex assay, Phospho-GSK3β(S9)
# Excerpt: (§4) Determination of Phospho-GSK3β(S9), Phospho-PRAS40(T246) and Phospho-4E-BP1(T46) and the Effect of Compound 1 or Rapamycin.
# as §1, §2, §3
# Phospho-PRAS40(T246) = assay: Luminex multiplex assay, Phospho-PRAS40(T246)
# Excerpt: as §4, §1, §2, §3
# [1] = Homo sapiens, HCT-116, HCT116 cell line, IGF, read-out: Luminex p70S6K (IGF)
# [2] = Homo sapiens, U-87 MG, U87MG cell line, read-out: Luminex p70S6K
# [3] = Homo sapiens, U-87 MG, U87MG cell line, read-out: Luminex GSK-3β
# [4] = Homo sapiens, HCT-116, HCT116 cell line, IGF, read-out: Luminex PRAS40 (IGF)
# [5] = Homo sapiens, U-87 MG, U87MG cell line, read-out: Luminex PRAS40
# [6] = PC3 cell line, read-out: Luminex p70S6K
# [7] = PC3 cell line, read-out: Luminex GSK-3β
# [8] = PC3 cell line, read-out: Luminex PRAS40
Structure (SMILES),IC50 (p70S6K; [6]) [nM],IC50 (Phospho-GSK3β(S9); [7]) [nM],IC50 (Phospho-PRAS40(T246); [8]) [nM],other results
"CC(C)(O)c1ccc(-c2cnc3c(n2)N(CC2CCOCC2)CC(=O)N3)cc1 [A-6, 6-(4-(2-hydroxypropan-2-yl)phenyl)-4-((tetrahydro-2H-pyran-4-yl)methyl)-3,4-dihydropyrazino[2,3-b]pyrazin-2(1H)-one]",–,–,–,IC50 (p70S6K; [1]): 654 nM; IC50 (p70S6K; [2]): 162 nM; IC50 (Phospho-GSK3β(S9); [3]): 2470 nM; IC50 (Phospho-PRAS40(T246); [4]): 492 nM; IC50 (Phospho-PRAS40(T246); [5]): 3240 nM
CNc1nc2c(C)cc(-c3cnc4c(n3)N(CCOC)C(=O)CN4)cc2[nH]1 [C-39],283,> 5000,1400,–
CC(C)(O)c1ccc(-c2cnc3c(n2)N(Cc2cccc(C#N)c2)C(=O)CN3)cn1 [C-85],27,30,139,–
O=C1CNc2ncc(-c3ccc4cc[nH]c4c3)nc2N1CCC1CCOCC1 [C-49],468,3840,1990,–
"C[C@@H](O)c1ccc(-c2cnc3c(n2)N(CCC2CCOCC2)C(=O)CN3)cn1 [A-8, (R)-7-(6-(1-hydroxyethyl)pyridin-3-yl)-1-(2-(tetrahydro-2H-pyran-4-yl)ethyl)-3,4-dihydropyrazino[2,3-b]pyrazin-2(1H)-one]",–,–,–,IC50 (p70S6K; [1]): 91 nM; IC50 (p70S6K; [2]): 35.5 nM; IC50 (Phospho-GSK3β(S9); [3]): 402 nM; IC50 (Phospho-PRAS40(T246); [4]): 160 nM; IC50 (Phospho-PRAS40(T246); [5]): 255 nM
CO[C@H]1CC[C@@H](N2C(=O)CNc3ncc(-c4ccc(-c5nnc[nH]5)nc4C)nc32)C1 [C-57],6,170,123,–
CCN1C(=O)CNc2ncc(-c3ccc4cn[nH]c4c3)nc21 [C-97],> 1500,> 1500,> 1500,–
COC1CCC(CN2CC(=O)Nc3ncc(-c4ccc(C(C)(C)O)nc4)nc32)C1 (stereo not shown) [C-22],86,2980,1140,–
O=C1CN(CCC2CCOCC2)c2nc(-c3ccc4[nH]ccc4c3)cnc2N1 [C-40],1520,> 5000,> 5000,–
O=C1CNc2ncc(-c3ccc4[nH]ccc4c3)nc2N1CCC1CCOCC1 [C-55],25,341,228,–
COC1CCC(N2CC(=O)Nc3ncc(-c4ccc(-c5nc[nH]n5)c(F)c4C)nc32)CC1 (stereo not shown) [C-108],5,37,31,–
O=C1CN(CCC2CCOCC2)c2nc(-c3cccc(-c4ncn[nH]4)c3)cnc2N1 [C-87],910,> 1500,> 1500,–
"CO[C@H]1CC[C@H](N2CC(=O)Nc3ncc(-c4ccc(C(C)(C)O)nc4)nc32)CC1 [A-3, 6-(6-(2-hydroxypropan-2-yl)pyridin-3-yl)-4-((1r,4r)-4-methoxycyclohexyl)-3,4-dihydropyrazino[2,3-b]pyrazin-2(1H)-one]",–,–,–,"IC50 (p70S6K; HCT116 cell line, IGF, read-out: Luminex p70S6K (IGF)): 1820 nM; IC50 (p70S6K; U87MG cell line, read-out: Luminex p70S6K): 435 nM; IC50 (Phospho-GSK3β(S9); HCT116 cell line, IGF, read-out: Luminex GSK-3β (IGF)): 1290 nM; IC50 (Phospho-GSK3β(S9); U87MG cell line, read-out: Luminex GSK-3β): 1470 nM; IC50 (Phospho-PRAS40(T246); HCT116 cell line, IGF, read-out: Luminex PRAS40 (IGF)): 1370 nM; IC50 (Phospho-PRAS40(T246); U87MG cell line, read-out: Luminex PRAS40): 1160 nM"
COCCN1C(=O)CNc2ncc(-c3cnc4[nH]ccc4c3)nc21 [C-104],< 1.5,168,106,–
COCCN1C(=O)CNc2ncc(-c3ccc(-c4nc[nH]n4)c(F)c3C)nc21 [C-19],6,156,53,–
CC(C)(O)c1ccc(-c2cnc3[nH]c(=O)n(CC4CCCCC4)c3n2)cc1 [C-1],557,> 1500,> 1500,–

Structure (SMILES),IC50 (p70S6K; [6]) [nM],IC50 (Phospho-GSK3β(S9); [7]) [nM],IC50 (Phospho-PRAS40(T246); [8]) [nM],other results
O=C1CNc2ncc(-c3cnc4[nH]ccc4c3)nc2N1CCC1CCOCC1 [C-61],3,33,21,–
Cc1nc(-c2nnc[nH]2)ccc1-c1cnc2c(n1)N(Cc1cccc(C#N)c1)C(=O)CN2 [C-92],1,8,9,–
O=C1CN(CCC2CCOCC2)c2nc(-c3ccc4cc[nH]c4c3)cnc2N1 [C-41],746,3180,5000,–
CC(C)(O)c1ccc(-c2cnc3c(n2)N([C@H]2CC[C@H](O)CC2)C(=O)CN3)cn1 [C-65],40,266,207,–
COC1CCC(CN2C(=O)CNc3ncc(-c4cnc(C(N)=O)cc4C)nc32)CC1 (stereo not shown) [C-89],102,860,1010,–
CO[C@H]1CC[C@H](N2C(=O)CNc3ncc(-c4ccc(C(C)(C)O)nc4)nc32)C1 [C-79],981,> 1500,> 1500,–
COC1CCC(N2CC(=O)Nc3ncc(-c4ccc(-c5nnc[nH]5)nc4C)nc32)C1 (stereo not shown) [C-53],232,1140,1160,–
COC1CCC(N2C(=O)CNc3ncc(-c4ccc(C(C)(C)O)cc4)nc32)CC1 (stereo not shown) [C-48],80,502,415,–
COC1CCC(CN2C(=O)CNc3ncc(-c4cnc(-c5nc[nH]n5)cc4C)nc32)CC1 (stereo not shown) [C-91],2,4,7,–
COCCN1CC(=O)Nc2ncc(-c3cnc(C(N)=O)cc3C)nc21 [C-86],310,939,> 1500,–
CC(C)(O)c1ccc(-c2cnc3c(n2)N(CCN2CCOCC2)C(=O)CN3)cn1 [C-70],540,700,> 1500,–
COC1CCC(N2CC(=O)Nc3ncc(-c4ccc(C(C)(C)O)nc4)nc32)C1 (stereo not shown) [C-29],235,> 5000,2130,–
CO[C@H]1CC[C@H](N2CC(=O)Nc3ncc(-c4ccc(-c5nnc[nH]5)nc4C)nc32)C1 [C-50],48,> 500,> 500,–
O=C1CNc2ncc(-c3ccc(-c4nnc[nH]4)c(F)c3)nc2N1CCC1CCOCC1 [C-20],6,> 50,> 50,–
COC1CCC(CN2C(=O)CNc3ncc(-c4cnc(C(N)=O)cc4C)nc32)CC1 (stereo not shown) [C-95],29,234,308,–
